Source: ChEMBL document CHEMBL1155560, “Two complex proline esters from the sea hare Stylocheilus longicauda” (J Nat Prod, 2000)
In brackets after ≈: the same amount, converted by molar mass.

Experiments:
Type in all cases: functional, cell-based
[1] = Cytotoxicity against human HTB38 cells; conditions: HTB-38
P388 = experiment: Cytotoxicity against mouse P388 cells
A549 = experiment: Cytotoxicity against human A549 cells

Row | Structure (SMILES) | IC50 [1] | IC50 (P388) | IC50 (A549)
1 | C=C(C/C=C/C=C/Cl)CC(OC(=O)[C@@H]1CCC(=O)N1C)C(C)(C)C (stereo partly specified) | 2.5 µg/mL (≈ 7.06 µM) | 2.5 µg/mL (≈ 7.06 µM) | 2.5 µg/mL (≈ 7.06 µM)
2 | C=C[C@](C)(CCC=C(C)C)c1ccc2c3c(c[nH]c13)C[C@@H](COC(C)=O)NC(=O)[C@H](C(C)C)N2C [LYNGBYATOXIN A ACETATE] | 0.05 µg/mL | 0.05 µg/mL | 0.05 µg/mL
